Experiment [1] concerns the target T1, GBA2 (Homo sapiens, UniProt Q9HCG7).
T1 sequence (Q9HCG7 1-927): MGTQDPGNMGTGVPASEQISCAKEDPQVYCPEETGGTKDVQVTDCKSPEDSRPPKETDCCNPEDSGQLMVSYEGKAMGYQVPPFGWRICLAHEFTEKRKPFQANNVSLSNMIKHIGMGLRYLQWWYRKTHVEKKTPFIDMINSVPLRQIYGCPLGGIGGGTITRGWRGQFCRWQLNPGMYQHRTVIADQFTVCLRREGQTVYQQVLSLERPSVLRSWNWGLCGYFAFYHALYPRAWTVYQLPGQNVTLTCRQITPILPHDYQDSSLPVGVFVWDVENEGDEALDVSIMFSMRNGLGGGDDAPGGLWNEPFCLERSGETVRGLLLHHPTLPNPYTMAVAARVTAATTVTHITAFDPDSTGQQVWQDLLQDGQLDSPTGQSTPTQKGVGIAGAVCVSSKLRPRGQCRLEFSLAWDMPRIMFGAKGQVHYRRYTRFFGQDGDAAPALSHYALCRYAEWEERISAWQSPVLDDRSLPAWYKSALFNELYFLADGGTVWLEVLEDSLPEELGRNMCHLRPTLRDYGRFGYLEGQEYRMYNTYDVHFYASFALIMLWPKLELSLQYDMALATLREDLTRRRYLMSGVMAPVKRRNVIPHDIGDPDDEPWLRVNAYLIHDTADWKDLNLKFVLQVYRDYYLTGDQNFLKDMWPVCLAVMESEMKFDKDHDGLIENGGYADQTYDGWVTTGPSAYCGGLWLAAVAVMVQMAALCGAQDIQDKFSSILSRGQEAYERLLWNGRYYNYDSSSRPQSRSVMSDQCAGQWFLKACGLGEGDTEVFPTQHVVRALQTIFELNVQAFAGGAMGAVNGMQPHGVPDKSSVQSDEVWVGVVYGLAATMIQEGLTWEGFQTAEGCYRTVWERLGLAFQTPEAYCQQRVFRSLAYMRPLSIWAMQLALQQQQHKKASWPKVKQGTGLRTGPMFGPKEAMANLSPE
Description: Determination of IC50 values for inhibition of GBA2 in cell lysate. The experiment is classed as biochemical. The arrangement: host or cells: HEK293T (lentiviral transduction, puromycin selection); used as cellular homogenate. The procedure, abridged: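 Fluorogenic 4-MU-β-glucoside (250 μM) turnover over 20 min at 37 °C, pH 5.5, measured after NaOH/glycine stop (ex 365, em 450 nm). Enzyme source: lysate (0.083 mg/mL) of lentivirally transduced GBA2-HEK293T, GCase blocked by 20 μM azaspiro-octanediol; compound preincubated 5 min; IC50 = 50% inhibition concentration.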

For experiment [2], the target named is T1, GBA2. The experiment is described as follows: Binding specificity (selectivity) for GBA2 over other enzymes. It is filed as biochemical. The settings on record: compared to a suitable reference compound, e.g. NB-DNJ (miglustat) or AMP-DNM. The text has this:
In some embodiments, one or more of the compounds according to the invention may specifically bind a GBA2. In alternative embodiments, one or more of the compounds according to the invention may specifically bind the active site of a GBA2. […] In alternative embodiments, one or more of the compounds according to the invention may specifically bind the human non-lysosomal glucosylceramidase (GBA2) over the human lysosomal glucosylceramidase (GCase) and/or the human cytosolic glucosylceramidase (GBA3). In alternative embodiments, one or more of the compounds according to the invention may specifically bind the human non-lysosomal glucosylceramidase (GBA2) over the human glucosylceramide synthase (GCS). In alternative embodiments, one or more of the compounds according to the invention may specifically bind the human non-lysosomal glucosylceramidase (GBA2) over an intestinal alpha-glucosidase, where the intestinal alpha-glucosidase may be a sucrase-isomaltase or a maltase-glucoamylase.

[3] abbreviates: cellular homogenate of HEK293T cells overexpressing human GBA2, 250 μM 4-methylumbelliferone-β-D glucopyranoside, pH 5.5, 37° C., GCase inhibitor present, read-out: GBA2 IC50.

Read-outs that look alike come from different tables or passages of the source.

Usually IC50 stands for the concentration needed to halve the response being measured.

For the molecule `C[C@@H]1[C@@H](O)[C@H](O)[C@@H](O)CN1CCc1c(F)cc(N2CCCC2)cc1F` [Example 56, (2R,3R,4R,5S)-1-(2,6-difluoro-4-(pyrrolidin-1-yl)phenethyl)-2-methylpiperidine-3,4,5-triol], the IC50 on GBA2 [1] (setting [3]) was under 100 nM. Besides, the “binding specificity (IC50 or Ki of other molecule / GBA2)” value on GBA2 [2] was “enhanced binding specificity”.

With `C[C@@H]1[C@@H](O)[C@H](O)[C@@H](O)CN1CCc1c(F)cc(OCC2CC2)cc1F` [Example 60, (2R,3R,4R,5S)-1-(4-(cyclopropylmethoxy)-2,6-difluorophenethyl)-2-methylpiperidine-3,4,5-triol], the IC50 on GBA2 [1] is under 100 nM. Moreover, at GBA2 [2], the “binding specificity (IC50 or Ki of other molecule / GBA2)” value is recorded as “enhanced binding specificity”.

`C[C@@H]1[C@@H](O)[C@H](O)[C@@H](O)CN1CC1CCC2(CCC2)CC1` [Example 24, (2R,3R,4R,5S)-2-methyl-1-(spiro[3.5]nonan-7-ylmethyl)piperidine-3,4,5-triol]: on GBA2 [1] (setting [3]), the IC50 is under 100 nM. The “binding specificity (IC50 or Ki of other molecule / GBA2)” value on GBA2 [2] is listed as “enhanced binding specificity”.

Take `C[C@@H]1[C@@H](O)[C@H](O)[C@@H](O)CN1C[C@H]1CCN(c2cccc(C(F)(F)F)n2)C1` [Example 119, (2R,3R,4R,5S)-2-methyl-1-(((R)-1-(6-(trifluoromethyl)pyridin-2-yl)pyrrolidin-3-yl)methyl)piperidine-3,4,5-triol]: the IC50 on GBA2 [1] (setting [3]) was under 100 nM. The “binding specificity (IC50 or Ki of other molecule / GBA2)” value at GBA2 [2] is reported as “enhanced binding specificity”.

`CCCCOc1cc(F)c(CCN2C[C@H](O)[C@@H](O)[C@H](O)[C@H]2C)c(F)c1` [Example 59, (2R,3R,4R,5S)-1-(4-butoxy-2,6-difluorophenethyl)-2-methylpiperidine-3,4,5-triol]: the IC50 on GBA2 [1] was under 100 nM. Further, the “binding specificity (IC50 or Ki of other molecule / GBA2)” value at GBA2 [2] was “enhanced binding specificity”.

Take `C[C@@H]1[C@@H](O)[C@H](O)[C@@H](O)CN1CCc1c(F)cc(C2CCOCC2)cc1F` [Example 54, (2R,3R,4R,5S)-1-(2,6-difluoro-4-(tetrahydro-2H-pyran-4-yl)phenethyl)-2-methylpiperidine-3,4,5-triol]: the IC50 on GBA2 [1] (setting [3]) is under 100 nM. In addition, at GBA2 [2], the “binding specificity (IC50 or Ki of other molecule / GBA2)” value is on record as “enhanced binding specificity”.

As to `C[C@@H]1[C@@H](O)[C@H](O)[C@@H](O)CN1CCc1cc2c(cc1F)OCO2` [Example 71, (2R,3R,4R,5S)-1-(2-(6-fluorobenzo[d][1,3]dioxol-5-yl)ethyl)-2-methylpiperidine-3,4,5-triol], the IC50 at GBA2 [1] is under 100 nM. Also, the “binding specificity (IC50 or Ki of other molecule / GBA2)” value at GBA2 [2] was “enhanced binding specificity”.

On to `Cc1ccccc1N1CC[C@H](CN2C[C@H](O)[C@@H](O)[C@H](O)[C@H]2C)C1` [Example 114, (2R,3R,4R,5S)-2-methyl-1-(((R)-1-(o-tolyl)pyrrolidin-3-yl)methyl)piperidine-3,4,5-triol], for which, on GBA2 [1] (setting [3]), the IC50 was under 100 nM. The “binding specificity (IC50 or Ki of other molecule / GBA2)” value on GBA2 [2] was “enhanced binding specificity”.

On to `C[C@@H]1[C@@H](O)[C@H](O)[C@@H](O)CN1C[C@H]1CCCN(c2cccc(C(F)(F)F)n2)C1` [Example 139, (2R,3R,4R,5S)-2-methyl-1-(((R)-1-(6-(trifluoromethyl)pyridin-2-yl)piperidin-3-yl)methyl)piperidine-3,4,5-triol], for which, on GBA2 [1] (setting [3]), the IC50 was under 100 nM. The “binding specificity (IC50 or Ki of other molecule / GBA2)” value on GBA2 [2] is reported as “enhanced binding specificity”.

`C[C@@H]1[C@@H](O)[C@H](O)[C@@H](O)CN1C[C@H]1CC[C@@H](C(C)(C)C)CC1` [Example 9, (2R,3R,4R,5S)-1-(((1s,4S)-4-(tert-butyl)cyclohexyl)methyl)-2-methylpiperidine-3,4,5-triol]: the IC50 at GBA2 [1] (setting [3]) is under 100 nM. On GBA2 [2], the “binding specificity (IC50 or Ki of other molecule / GBA2)” value is given as “enhanced binding specificity”.

On to `O[C@H]1[C@H](O)[C@@H](O)CN(CCc2cc3c(cc2F)OCO3)[C@@H]1CF` [Example 152, (2S,3R,4R,5S)-1-(2-(6-fluorobenzo[d][1,3]dioxol-5-yl)ethyl)-2-(fluoromethyl)piperidine-3,4,5-triol], for which, at GBA2 [1], the IC50 was under 100 nM. For the same molecule, the “binding specificity (IC50 or Ki of other molecule / GBA2)” value at GBA2 [2] was “enhanced binding specificity”.

As for `Cc1ccccc1N1CCC[C@H](CN2C[C@H](O)[C@@H](O)[C@H](O)[C@H]2C)C1` [Example 136, (2R,3R,4R,5S)-2-methyl-1-(((R)-1-(o-tolyl)piperidin-3-yl)methyl)piperidine-3,4,5-triol], the IC50 on GBA2 [1] (setting [3]) was under 100 nM. On GBA2 [2], the “binding specificity (IC50 or Ki of other molecule / GBA2)” value is given as “enhanced binding specificity”.

In the case of `C[C@@H]1[C@@H](O)[C@H](O)[C@@H](O)CN1C[C@@H]1CCN(c2ccccc2C(F)(F)F)C1` [Example 131, (2R,3R,4R,5S)-2-methyl-1-(((S)-1-(2-(trifluoromethyl)phenyl)pyrrolidin-3-yl)methyl)piperidine-3,4,5-triol], the IC50 on GBA2 [1] (setting [3]) is under 100 nM. In addition, the “binding specificity (IC50 or Ki of other molecule / GBA2)” value on GBA2 [2] is given as “enhanced binding specificity”.

`C[C@@H]1[C@@H](O)[C@H](O)[C@@H](O)CN1C[C@H]1CCN(c2cccc(F)c2)C1` [Example 117, (2R,3R,4R,5S)-1-(((R)-1-(3-fluorophenyl)pyrrolidin-3-yl)methyl)-2-methylpiperidine-3,4,5-triol]: the IC50 at GBA2 [1] (setting [3]) was under 100 nM. On GBA2 [2], the “binding specificity (IC50 or Ki of other molecule / GBA2)” value is listed as “enhanced binding specificity”.

Consider `C[C@@H]1[C@@H](O)[C@H](O)[C@@H](O)CN1C[C@@H]1CCCN(c2ncccc2C(F)(F)F)C1` [Example 141, (2R,3R,4R,5S)-2-methyl-1-(((S)-1-(3-(trifluoromethyl)pyridin-2-yl)piperidin-3-yl)methyl)piperidine-3,4,5-triol], for which the IC50 on GBA2 [1] (setting [3]) is under 100 nM. Besides, at GBA2 [2], the “binding specificity (IC50 or Ki of other molecule / GBA2)” value is “enhanced binding specificity”.

For the molecule `C[C@@H]1[C@@H](O)[C@H](O)[C@@H](O)CN1C[C@H]1CC[C@@H](C(C)(C)F)CC1` [Example 13, (2R,3R,4R,5S)-1-(((1s,4S)-4-(2-fluoropropan-2-yl)cyclohexyl)methyl)-2-methylpiperidine-3,4,5-triol], at GBA2 [1] (setting [3]), the IC50 is under 100 nM. For the same molecule, at GBA2 [2], the “binding specificity (IC50 or Ki of other molecule / GBA2)” value is “enhanced binding specificity”.

`CC(C)c1cc(F)c(CCN2C[C@H](O)[C@@H](O)[C@H](O)[C@H]2C)c(F)c1` [Example 51, (2R,3R,4R,5S)-1-(2,6-difluoro-4-isopropylphenethyl)-2-methylpiperidine-3,4,5-triol]: the IC50 at GBA2 [1] is under 100 nM. Also, the “binding specificity (IC50 or Ki of other molecule / GBA2)” value at GBA2 [2] is listed as “enhanced binding specificity”.

Turning to `CC(C)c1ccc(F)c(CCN2C[C@H](O)[C@@H](O)[C@H](O)[C@H]2C)c1F` [Example 52, (2R,3R,4R,5S)-1-(2,6-difluoro-3-isopropylphenethyl)-2-methylpiperidine-3,4,5-triol], the IC50 on GBA2 [1] was under 100 nM. For the same molecule, the “binding specificity (IC50 or Ki of other molecule / GBA2)” value on GBA2 [2] is “enhanced binding specificity”.

As to `C[C@@H]1[C@@H](O)[C@H](O)[C@@H](O)CN1CCc1c(F)cc(C(F)(F)F)cc1F` [Example 55, (2R,3R,4R,5S)-1-(2,6-difluoro-4-(trifluoromethyl)phenethyl)-2-methylpiperidine-3,4,5-triol], the IC50 at GBA2 [1] was in the range of 100 to 1000 nM. In addition, the “binding specificity (IC50 or Ki of other molecule / GBA2)” value on GBA2 [2] was “enhanced binding specificity”.

As to `C[C@@H]1[C@@H](O)[C@H](O)[C@@H](O)CN1C[C@H]1CCCN(c2cnccc2C(F)(F)F)C1` [Example 140, (2R,3R,4R,5S)-2-methyl-1-(((R)-1-(4-(trifluoromethyl)pyridin-3-yl)piperidin-3-yl)methyl)piperidine-3,4,5-triol], the IC50 at GBA2 [1] (setting [3]) is under 100 nM. The “binding specificity (IC50 or Ki of other molecule / GBA2)” value on GBA2 [2] is “enhanced binding specificity”.

These data come from patent US12612380B2, “Non-lysosomal glucosylceramidase inhibitors and uses thereof” (ALECTOS THERAPEUTICS INC., priority 2019, dated 2026).
